Earlier results in patent US20240050486A1, “METHODS OF GENERATING CORTICAL EXCITATORY NEURONS” (Memorial Sloan-Kettering Cancer Center, priority 2021, published 2024).

Legend:
WNT pathway (Porcupine) = conditions: at the level of the pathway activator Porcupine; read-out: IC50 WNT pathway inhibition

SMILES	degradation of β-catenin (SW480 cells)	protein levels of the axin-GSK3β complex (SW480 cells)	IC50 (WNT pathway (Porcupine)) [nM]
Oc1nc(-c2ccc(C(F)(F)F)cc2)nc2c1CSCC2 [XAV939]	promotes the degradation of β-catenin	increases the protein levels of the axin-GSK3β complex	–
Cc1ccc2nc(NC(=O)CSc3nc4c(c(=O)n3-c3ccccc3)SCC4)sc2c1 [IWP-2, N-(6-methyl-1,3-benzothiazol-2-yl)-2-[(4-oxo-3-phenyl-6,7-dihydrothieno[3,2-d]pyrimidin-2-yl)thio]acetamide]	–	–	27
